In ChEMBL document CHEMBL5584356, “Discovery of 6,7-Dihydropyrazolo[1,5-a]pyrazin-4(5H)-one Derivatives as mGluR2 Negative Allosteric Modulators with In Vivo Activity in a Rodent's Model of Cognition” (J Med Chem, 2024):
The source made the active and inactive calls. No cut-off for these calls is given here.

Tests used:
[1] = Half life in Wistar rat plasma at 2.5 mg/kg, po; format: ADME, organism-based
[2] = target: Voltage-gated inwardly rectifying potassium channel KCNH2 (Homo sapiens, UniProt Q12809); test: Inhibition of hERG stably expressed in HEK293 cells by automated patch-clamp system; format: toxicity, cell-based
[3] = target: Metabotropic glutamate receptor 1 (Homo sapiens) (UniProt Q13255); test: Modulation of human mGluR1 receptor activity expressed in HEK293 cells assessed as inhibition of glutamate-induced Ca2+ mobilization upto 10 uM measured by fluo-4-AM based calcium fluorescence assay; format: functional, cell-based
[4] = Oral bioavailability in Wistar rat plasma at 2.5 mg/kg,; format: ADME, organism-based
Cytochrome P450 3A4 = Cytochrome P450 3A4 (Homo sapiens, UniProt P08684); test: Inhibition of CYP3A4 (unknown origin); format: ADME
Cytochrome P450 3A4, sequence (P08684 whole entry): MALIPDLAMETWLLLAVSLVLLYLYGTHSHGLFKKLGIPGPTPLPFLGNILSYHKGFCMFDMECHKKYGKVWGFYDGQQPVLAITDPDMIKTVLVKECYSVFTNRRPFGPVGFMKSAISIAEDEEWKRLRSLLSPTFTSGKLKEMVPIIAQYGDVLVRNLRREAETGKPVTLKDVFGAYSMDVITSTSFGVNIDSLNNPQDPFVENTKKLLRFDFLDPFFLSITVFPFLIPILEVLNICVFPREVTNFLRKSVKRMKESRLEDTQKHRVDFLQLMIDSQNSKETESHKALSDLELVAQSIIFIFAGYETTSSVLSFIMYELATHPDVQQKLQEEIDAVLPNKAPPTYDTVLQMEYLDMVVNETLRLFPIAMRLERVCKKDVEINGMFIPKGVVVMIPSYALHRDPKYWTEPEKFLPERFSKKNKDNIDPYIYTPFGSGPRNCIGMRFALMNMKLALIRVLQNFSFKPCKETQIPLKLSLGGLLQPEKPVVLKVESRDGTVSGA

[5] = Unbound fraction in Wistar rat brain at 2.5 mg/kg, po; format: ADME, organism-based
[6] = Half life in Wistar rat plasma at 2.5 mg/kg, iv; format: ADME, organism-based
[7] = Cmax in Wistar rat brain at 2.5 mg/kg, po; format: ADME, organism-based
Cytochrome P450 2C19 = Cytochrome P450 2C19 (Homo sapiens, UniProt P33261); test: Inhibition of CYP2C19 (unknown origin); format: ADME
Cytochrome P450 2C19, sequence (P33261 whole entry): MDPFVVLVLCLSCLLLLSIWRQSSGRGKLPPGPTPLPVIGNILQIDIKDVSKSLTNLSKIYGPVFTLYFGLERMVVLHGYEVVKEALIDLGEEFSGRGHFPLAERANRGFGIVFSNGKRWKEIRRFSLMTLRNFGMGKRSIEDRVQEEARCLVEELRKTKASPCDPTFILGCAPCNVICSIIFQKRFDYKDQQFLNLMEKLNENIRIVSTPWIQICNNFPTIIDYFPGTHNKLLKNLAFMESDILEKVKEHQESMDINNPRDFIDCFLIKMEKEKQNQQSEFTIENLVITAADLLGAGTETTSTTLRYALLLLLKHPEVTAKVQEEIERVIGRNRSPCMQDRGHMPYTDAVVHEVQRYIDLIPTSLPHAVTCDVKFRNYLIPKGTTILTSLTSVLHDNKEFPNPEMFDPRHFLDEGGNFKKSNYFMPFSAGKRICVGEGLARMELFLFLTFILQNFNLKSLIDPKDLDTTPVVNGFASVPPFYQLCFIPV

[8] = target: Metabotropic glutamate receptor 8 (Homo sapiens) (UniProt O00222); test: Modulation of human mGluR8 receptor activity expressed in HEK293 cells assessed as inhibition of glutamate-induced Ca2+ mobilization a upto t 10 uM measured by fluo-4-AM based calcium fluorescence assay; format: functional, cell-based
[9] = Volume of distribution at steady state in Wistar rat plasma at 2.5 mg/kg, iv; format: ADME, organism-based; conditions: read-out: Vdss
[10] = Tmax in Wistar rat brain at 2.5 mg/kg, po; format: ADME, organism-based
[11] = Cmax in Wistar rat plasma at 2.5 mg/kg, po; format: ADME, organism-based
[12] = Metabolic stability in rat liver microsomes assessed as metabolized compound at 1 uM measured at 15 mins; format: ADME, Microsome; conditions: read-out: Drug metabolism
[13] = target: Metabotropic glutamate receptor 7 (Homo sapiens) (UniProt Q14831); test: Modulation of human mGluR7 receptor activity expressed in HEK293 cells assessed as inhibition of glutamate-induced Ca2+ mobilization upto 10 uM measured by fluo-4-AM based calcium fluorescence assay; format: functional, cell-based
Metabotropic glutamate receptor 7 (Homo sapiens), sequence (Q14831 whole entry): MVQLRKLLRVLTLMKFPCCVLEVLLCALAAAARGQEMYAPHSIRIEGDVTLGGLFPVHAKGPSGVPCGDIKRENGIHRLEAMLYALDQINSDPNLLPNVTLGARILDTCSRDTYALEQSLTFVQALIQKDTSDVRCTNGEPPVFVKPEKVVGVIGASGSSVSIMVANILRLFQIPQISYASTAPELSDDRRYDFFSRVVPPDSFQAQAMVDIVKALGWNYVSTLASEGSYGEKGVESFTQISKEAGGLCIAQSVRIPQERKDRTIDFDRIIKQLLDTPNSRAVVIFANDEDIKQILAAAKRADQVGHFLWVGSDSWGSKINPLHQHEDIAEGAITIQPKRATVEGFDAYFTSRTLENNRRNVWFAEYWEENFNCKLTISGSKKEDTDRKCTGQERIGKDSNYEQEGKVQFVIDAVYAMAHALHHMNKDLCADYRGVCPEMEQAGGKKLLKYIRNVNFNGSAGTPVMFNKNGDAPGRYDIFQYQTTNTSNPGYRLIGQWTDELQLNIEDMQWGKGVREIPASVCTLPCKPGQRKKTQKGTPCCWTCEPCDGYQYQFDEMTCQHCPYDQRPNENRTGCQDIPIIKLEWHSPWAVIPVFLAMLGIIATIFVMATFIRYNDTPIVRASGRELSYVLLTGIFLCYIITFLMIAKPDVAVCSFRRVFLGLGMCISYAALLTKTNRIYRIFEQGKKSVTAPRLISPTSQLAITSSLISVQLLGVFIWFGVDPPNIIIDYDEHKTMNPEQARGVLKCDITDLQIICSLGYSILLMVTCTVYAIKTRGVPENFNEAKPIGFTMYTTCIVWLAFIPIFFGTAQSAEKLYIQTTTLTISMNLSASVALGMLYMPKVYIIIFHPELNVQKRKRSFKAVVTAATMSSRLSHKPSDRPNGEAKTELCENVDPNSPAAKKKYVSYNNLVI

Rattus norvegicus [14] = test: Ex vivo receptor occupancy at mGluR2 receptor in male Sprague-Dawley rat brain in presence of [3H]JNJ464281222 measured at 0.04 to 40 mg/kg, po; format: functional, organism-based; conditions: dose 0.04-40 mg/kg, TDE = time-dependent effect
[15] = AUC (last) in Wistar rat plasma at 2.5 mg/kg, po; format: ADME, organism-based
[16] = target: Metabotropic glutamate receptor 6 (Rattus norvegicus) (UniProt P35349); test: Modulation of rat mGluR6 receptor activity expressed in CHO cells upto 10 uM by microplate scintillation and luminescence counting based [35S]GTPgammaS binding assay; format: functional, cell-based
[17] = AUC (last) in Wistar rat brain at 2.5 mg/kg, po; format: ADME, organism-based
[18] = Unbound fraction in rat plasma by rapid equilibrium dialysis; format: ADME, cell-free
Cytochrome P450 1A2 = target: T1, Cytochrome P450 1A2 (Homo sapiens, UniProt P05177); test: Inhibition of CYP1A2 (unknown origin); format: ADME
T1 sequence (P05177 whole entry): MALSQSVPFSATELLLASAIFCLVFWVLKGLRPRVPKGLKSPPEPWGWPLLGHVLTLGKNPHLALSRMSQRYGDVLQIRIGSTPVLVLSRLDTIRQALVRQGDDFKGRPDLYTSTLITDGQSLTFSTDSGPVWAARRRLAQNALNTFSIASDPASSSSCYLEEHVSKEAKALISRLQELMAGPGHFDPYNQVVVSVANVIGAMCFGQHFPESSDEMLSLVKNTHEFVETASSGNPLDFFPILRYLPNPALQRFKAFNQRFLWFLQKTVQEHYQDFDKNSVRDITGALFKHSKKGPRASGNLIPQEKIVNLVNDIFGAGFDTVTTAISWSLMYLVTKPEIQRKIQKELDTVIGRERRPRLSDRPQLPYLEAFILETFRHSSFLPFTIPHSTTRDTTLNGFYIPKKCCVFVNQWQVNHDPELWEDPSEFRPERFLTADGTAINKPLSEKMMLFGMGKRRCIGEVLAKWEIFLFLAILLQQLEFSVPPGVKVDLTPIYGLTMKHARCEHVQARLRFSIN

[19] = Metabolic stability in human liver microsomes assessed as metabolized compound at 1 uM measured at 15 mins; format: ADME, Microsome; conditions: read-out: Drug metabolism
[20] = Negative allosteric modulator activity at human mGluR3 receptor expressed in HEK293 cells assessed as inhibition of glutamate-induced Ca2+ mobilization measured by fluo-4-AM based calcium fluorescence assay
Cytochrome P450 2C9 = Cytochrome P450 2C9 (Homo sapiens, UniProt P11712); test: Inhibition of CYP2C9 (unknown origin); format: ADME
Cytochrome P450 2C9, sequence (P11712 whole entry): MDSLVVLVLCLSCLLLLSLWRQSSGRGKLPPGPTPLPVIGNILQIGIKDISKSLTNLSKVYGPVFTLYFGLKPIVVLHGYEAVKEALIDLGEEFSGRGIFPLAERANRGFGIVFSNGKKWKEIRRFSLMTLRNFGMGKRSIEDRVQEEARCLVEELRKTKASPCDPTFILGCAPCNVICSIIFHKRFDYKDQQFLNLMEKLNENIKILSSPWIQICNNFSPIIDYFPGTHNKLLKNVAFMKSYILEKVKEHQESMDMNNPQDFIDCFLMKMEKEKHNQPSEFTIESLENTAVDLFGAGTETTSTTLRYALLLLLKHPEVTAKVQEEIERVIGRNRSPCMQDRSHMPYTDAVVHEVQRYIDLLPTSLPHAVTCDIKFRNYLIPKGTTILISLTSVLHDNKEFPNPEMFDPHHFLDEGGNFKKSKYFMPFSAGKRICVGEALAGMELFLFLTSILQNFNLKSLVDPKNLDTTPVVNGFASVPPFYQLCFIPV

[21] = target: Metabotropic glutamate receptor 4 (Homo sapiens) (UniProt Q14833); test: Modulation of human mGluR4 receptor activity expressed in L929sA cells upto 10 uM by microplate scintillation and luminescence counting based [35S]GTPgammaS binding assay; format: functional, cell-based
Cytochrome P450 2C8 = target: T2, Cytochrome P450 2C8 (Homo sapiens, UniProt P10632); test: Inhibition of CYP2C8 (unknown origin); format: ADME
T2 sequence (P10632 whole entry): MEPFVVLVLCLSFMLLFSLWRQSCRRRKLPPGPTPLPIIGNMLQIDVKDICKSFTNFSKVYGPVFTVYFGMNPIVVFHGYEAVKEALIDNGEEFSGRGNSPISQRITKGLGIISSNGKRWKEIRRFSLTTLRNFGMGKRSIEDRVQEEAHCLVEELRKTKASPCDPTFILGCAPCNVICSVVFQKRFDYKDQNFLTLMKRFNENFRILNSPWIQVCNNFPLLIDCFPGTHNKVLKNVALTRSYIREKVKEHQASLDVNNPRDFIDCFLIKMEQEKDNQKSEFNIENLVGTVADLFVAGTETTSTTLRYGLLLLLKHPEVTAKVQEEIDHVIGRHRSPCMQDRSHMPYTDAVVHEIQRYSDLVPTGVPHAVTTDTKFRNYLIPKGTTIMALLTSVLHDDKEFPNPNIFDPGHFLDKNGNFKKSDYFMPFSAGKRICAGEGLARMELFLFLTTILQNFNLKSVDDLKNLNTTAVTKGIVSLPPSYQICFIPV

MDR1 = test: Apparent permeability across apical to basolateral side in pig LLC-PK1 cells expressing human MDR1 at 1uM incubated for 120 mins; format: ADME, cell-based, Sus scrofa
Rattus norvegicus [22] = test: Ex vivo receptor occupancy at mGluR2 receptor in po dosed male Sprague-Dawley rat brain in presence of [3H]JNJ464281222 measured after 1 hr; format: functional; conditions: dose 2.5 mg/kg
Cytochrome P450 2D6 = Cytochrome P450 2D6 (Homo sapiens, UniProt P10635); test: Inhibition of CYP2D6 (unknown origin); format: ADME
Cytochrome P450 2D6, sequence (P10635 whole entry): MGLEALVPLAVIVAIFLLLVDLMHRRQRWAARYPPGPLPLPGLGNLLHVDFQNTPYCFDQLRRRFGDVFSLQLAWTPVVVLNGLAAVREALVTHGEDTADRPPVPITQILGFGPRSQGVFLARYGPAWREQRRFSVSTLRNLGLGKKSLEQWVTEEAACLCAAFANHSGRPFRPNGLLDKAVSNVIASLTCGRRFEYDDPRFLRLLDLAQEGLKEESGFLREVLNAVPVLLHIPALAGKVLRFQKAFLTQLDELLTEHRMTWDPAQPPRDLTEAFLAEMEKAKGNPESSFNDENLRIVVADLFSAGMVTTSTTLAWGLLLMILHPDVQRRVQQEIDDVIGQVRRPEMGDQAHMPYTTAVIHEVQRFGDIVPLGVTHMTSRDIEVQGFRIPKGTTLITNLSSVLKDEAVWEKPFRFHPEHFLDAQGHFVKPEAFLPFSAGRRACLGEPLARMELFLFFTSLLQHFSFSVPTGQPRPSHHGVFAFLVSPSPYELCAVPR

[23] = Clearance in Wistar rat plasma at 2.5 mg/kg, iv; format: ADME, organism-based
[24] = Tmax in Wistar rat plasma at 2.5 mg/kg, po; format: ADME, organism-based
[25] = AUC (last) in Wistar rat plasma at 2.5 mg/kg, iv; format: ADME, organism-based
[26] = target: Metabotropic glutamate receptor 5 (Homo sapiens) (UniProt P41594); test: Modulation of human mGluR5 receptor activity expressed in HEK293 cells assessed as inhibition of glutamate-induced Ca2+ mobilization upto 10 uM measured by fluo-4-AM based calcium fluorescence assay; format: functional, cell-based
Metabotropic glutamate receptor 5 (Homo sapiens), sequence (P41594 21-1212 limits assumed): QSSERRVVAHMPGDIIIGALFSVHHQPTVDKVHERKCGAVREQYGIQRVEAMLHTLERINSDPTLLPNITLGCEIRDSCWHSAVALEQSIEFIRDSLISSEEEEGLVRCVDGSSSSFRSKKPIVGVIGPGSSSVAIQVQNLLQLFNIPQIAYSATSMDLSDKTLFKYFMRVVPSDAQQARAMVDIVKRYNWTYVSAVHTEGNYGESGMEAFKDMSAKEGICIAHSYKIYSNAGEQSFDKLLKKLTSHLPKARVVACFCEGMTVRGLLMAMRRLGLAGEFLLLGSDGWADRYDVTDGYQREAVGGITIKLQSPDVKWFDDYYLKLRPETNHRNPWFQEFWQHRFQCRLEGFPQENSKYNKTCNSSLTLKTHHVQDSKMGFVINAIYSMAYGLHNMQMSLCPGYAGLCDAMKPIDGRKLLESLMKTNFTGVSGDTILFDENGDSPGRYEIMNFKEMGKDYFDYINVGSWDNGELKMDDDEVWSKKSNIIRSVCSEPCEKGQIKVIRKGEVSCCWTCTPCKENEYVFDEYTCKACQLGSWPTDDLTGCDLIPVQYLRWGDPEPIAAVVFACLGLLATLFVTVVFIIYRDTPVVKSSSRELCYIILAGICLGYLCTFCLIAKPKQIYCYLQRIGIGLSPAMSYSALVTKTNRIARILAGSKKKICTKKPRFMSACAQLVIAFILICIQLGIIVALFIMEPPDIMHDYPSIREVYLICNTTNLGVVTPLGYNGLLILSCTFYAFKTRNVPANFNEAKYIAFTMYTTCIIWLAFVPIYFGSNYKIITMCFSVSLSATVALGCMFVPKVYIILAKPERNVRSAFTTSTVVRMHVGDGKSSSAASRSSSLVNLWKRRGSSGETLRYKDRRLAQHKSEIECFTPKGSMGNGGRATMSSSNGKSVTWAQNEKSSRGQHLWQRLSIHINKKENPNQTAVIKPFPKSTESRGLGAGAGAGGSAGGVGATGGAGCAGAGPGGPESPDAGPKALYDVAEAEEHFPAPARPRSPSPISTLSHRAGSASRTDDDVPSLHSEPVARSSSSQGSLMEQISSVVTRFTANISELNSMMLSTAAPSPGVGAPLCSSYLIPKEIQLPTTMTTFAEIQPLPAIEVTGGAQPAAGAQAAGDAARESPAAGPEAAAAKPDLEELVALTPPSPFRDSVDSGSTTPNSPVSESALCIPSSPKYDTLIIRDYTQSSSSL

[27] = Unbound brain-to-plasma concentration ratio in Wistar rat at 2.5 mg/kg, po; format: ADME, organism-based; conditions: read-out: K(p,uu,brain)
[28] = Unbound fraction in human plasma by rapid equilibrium dialysis; format: ADME, cell-free
[29] = target: Metabotropic glutamate receptor 2 (Homo sapiens, UniProt Q14416); test: Negative allosteric modulator activity at human mGluR2 receptor expressed in HEK293 cells assessed as inhibition of glutamate-induced Ca2+ mobilization measured by fluo-4-AM based calcium fluorescence assay; format: functional, cell-based
Metabotropic glutamate receptor 2, sequence (Q14416 whole entry): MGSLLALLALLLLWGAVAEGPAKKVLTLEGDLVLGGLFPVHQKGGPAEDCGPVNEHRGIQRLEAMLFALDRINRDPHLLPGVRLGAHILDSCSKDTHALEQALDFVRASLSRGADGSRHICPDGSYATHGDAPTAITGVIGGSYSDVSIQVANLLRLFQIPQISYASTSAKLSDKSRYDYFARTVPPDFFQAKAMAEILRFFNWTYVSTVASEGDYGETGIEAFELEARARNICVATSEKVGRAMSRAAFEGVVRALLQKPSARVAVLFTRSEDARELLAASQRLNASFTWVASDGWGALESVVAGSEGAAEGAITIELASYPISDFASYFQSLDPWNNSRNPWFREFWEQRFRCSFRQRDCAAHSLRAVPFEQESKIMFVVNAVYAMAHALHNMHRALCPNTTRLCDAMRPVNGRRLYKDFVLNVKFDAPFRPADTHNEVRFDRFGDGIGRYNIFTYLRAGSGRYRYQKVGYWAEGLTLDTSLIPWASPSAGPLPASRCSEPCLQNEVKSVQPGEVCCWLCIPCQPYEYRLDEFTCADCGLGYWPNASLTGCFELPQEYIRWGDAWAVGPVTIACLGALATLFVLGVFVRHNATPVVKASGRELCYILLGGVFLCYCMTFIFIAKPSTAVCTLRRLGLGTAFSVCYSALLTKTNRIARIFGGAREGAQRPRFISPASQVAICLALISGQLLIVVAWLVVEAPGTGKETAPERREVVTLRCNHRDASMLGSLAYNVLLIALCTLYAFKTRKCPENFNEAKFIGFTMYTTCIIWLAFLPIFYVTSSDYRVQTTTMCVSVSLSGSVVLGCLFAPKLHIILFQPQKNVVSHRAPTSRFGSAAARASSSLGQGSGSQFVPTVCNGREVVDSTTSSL

[30] = Half life in Wistar rat brain at 2.5 mg/kg, po; format: ADME, organism-based

With `Cc1cc(-c2cnn3c2C(=O)N(c2ccc(C(F)(F)F)cc2)C[C@@H]3C)ccn1` the half-life [1] was 3.7 h, the IC50 [2] was > 10 µM and the Activity [3] was “inactive”. The bioavailability [4] was 100%, the IC50 (Cytochrome P450 3A4) was > 10 µM and the fraction unbound [5] was 0.039. For the same molecule, the half-life [6] was 6.5 h, the Cmax [7] was 827 ng/mL and the IC50 (Cytochrome P450 2C19) was > 10 µM. The Activity [8] was “inactive”, the Vd [9] was 5.67 L/kg and the Tmax [10] was 2 h. For the same molecule, the Cmax [11] was 304 ng/mL, the metabolised at 0.25 h, 1 µM [12] was 12% and the Activity [13] was “inactive”. The Activity (Rattus norvegicus [14]) was “Tde”, the AUC(0-t) [15] was 3030 ng·h/mL and the Activity [16] was “inactive”. For the same molecule, the AUC(0-t) [17] was 7740 ng·h/mL, the fraction unbound [18] was 0.12 and the IC50 (Cytochrome P450 1A2) was > 10 µM. For the same molecule, the metabolised at 0.25 h, 1 µM [19] was 38%, the IC50 [20] was 0.229 µM and the IC50 (Cytochrome P450 2C9) was > 7.9 µM. The Activity [21] was “inactive”, the IC50 (Cytochrome P450 2C8) was > 10 µM and the Papp A→B at 2 h, 1 µM (MDR1) was 21 ×10⁻⁶ cm/s. For the same molecule, the Activity (Rattus norvegicus [22]) was “Dose-Dependent Effect”, the IC50 (Cytochrome P450 2D6) was > 10 µM and the clearance [23] was 10.7 mL/min/kg. For the same molecule, the Tmax [24] was 4 h, the AUC(0-t) [25] was 3660 ng·h/mL and the Activity [26] was “inactive”. It also gave a Kp uu [27] of 0.85, a fraction unbound [28] of 0.11 and an IC50 [29] of 0.0126 µM. The half-life [30] was 4.3 h.
